Measured values published in patent US20260070945A1, “MACROCYCLIC IMMUNOMODULATORS” (Bristol-Myers Squibb Company, priority 2022, published 2026).
*1 amine or outer side, *2 acyl side, *3 side chain or, on linkers, in order; H or OH if unused. Where a SMILES comes first, the peptide text is derived from it. Bridges are numbered along the chain shown (N, C = ends). [ ]: non-standard residue; d: D form. The star is where a group is joined. ξ: configuration not given here. Phe(4-COOH) = N[C@@H](Cc1ccc(C(=O)O)cc1)C(=O)O; Bip = N[C@@H](Cc1ccc(-c2ccccc2)cc1)C(=O)O; Phe(3-Me) = Cc1cccc(C[C@H](N)C(=O)O)c1; Val(3-OH) = CC(C)(O)[C@H](N)C(=O)O; X6 = O=C(Cc1ccc(CN[*:1])cc1)[*:2]; 4Pal = N[C@@H](Cc1ccncc1)C(=O)O; Cha = N[C@@H](CC1CCCCC1)C(=O)O; Cit = NC(=O)NCCC[C@H](N)C(=O)O; Thr(3ξ) = CC(O)[C@H](N)C(=O)O; hSer = N[C@@H](CCO)C(=O)O; 4Abz = Nc1ccc(C(=O)O)cc1; Carboxymethyl = O=C(O)C*; NMeA = CN[C@@H](C)C(=O)O; Orn = NCCC[C@H](N)C(=O)O; Aun = NCCCCCCCCCCC(=O)O; Dab = NCC[C@H](N)C(=O)O; Dap = NC[C@H](N)C(=O)O; AEEA = NCCOCCOCC(=O)O

molecular target: T1, PD-1/PD-L1 interaction (PE-labeled human PD-L1-Ig binding to Jurkat cell line over-expressing human PD-1) (Homo sapiens, UniProt Q15116); assay: Jurkat-PD-1 Cell Binding High-Content Screening Assay (CBA); conditions: Jurkat-hPD-1 cells, PE-labeled PD-L1-Ig 20 nM final; read-out: Jurkat HPD1 PDL1 IC50
T1 construct: expressed in transfected cells; host or cells: Jurkat
T1 sequence (Q15116 25-288): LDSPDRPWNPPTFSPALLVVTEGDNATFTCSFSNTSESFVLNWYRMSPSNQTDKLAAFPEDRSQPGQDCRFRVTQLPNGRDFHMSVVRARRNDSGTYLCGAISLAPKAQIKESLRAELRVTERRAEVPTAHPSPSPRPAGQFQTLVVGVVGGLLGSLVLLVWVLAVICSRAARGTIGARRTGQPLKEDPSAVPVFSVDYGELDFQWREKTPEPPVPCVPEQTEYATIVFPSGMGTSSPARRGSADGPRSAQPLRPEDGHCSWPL
Outline: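 Binding of 20 nM (final) PE-tagged PD-L1-Ig to compound-pretreated Jurkat-hPD-1 cells was measured by high-content imaging after 1 h. Pretreatment ran 2 h at 37 °C in DMEM with 10% fetal calf serum.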

Row | Compound | IC50
1 | CC(C)C[C@@H]1NC(=O)[C@H](Cc2c[nH]c3ccccc23)NC(=O)[C@H](CC(=O)O)NC(=O)[C@H](Cc2ccc(C(=O)O)cc2)NC(=O)[C@H](Cc2ccc(OCC(=O)O)cc2)NC(=O)CSC[C@@H](C(=O)N[C@@H](CCCN)C(=O)NCCOCCOCC(=O)NCCCCCCCCCCC(=O)O)NC(=O)[C@H](CCCN)NC(=O)[C@H](C(C)C)NC(=O)[C@H](CC2CCCCC2)NC(=O)[C@H](CC(N)=O)NC(=O)[C@@H](CC(C)C)NC(=O)[C@H](C)N(C)C(=O)[C@H](C(C)C)NC(=O)[C@H](Cc2ccc(-c3ccccc3)cc2)NC1=O [Example 2144] ({CH2CO}-Y(Carboxymethyl)[Phe(4-COOH)]DWL[Bip]V[NMeA][dL]N[Cha]V[Orn]C[Orn][AEEA][Aun]-OH; thioether N-14) | 19.3 nM
2 | CC(C)C[C@@H]1NC(=O)[C@H](Cc2c[nH]c3ccccc23)NC(=O)[C@H](CC(=O)O)NC(=O)[C@H](Cc2ccncc2)NC(=O)[C@H](Cc2ccc(OCC(=O)O)cc2)NC(=O)CSC[C@@H](C(=O)Nc2ccc(C(=O)NCCCCCCCCCCC(=O)O)cc2)NC(=O)[C@H](CN)NC(=O)[C@H](C(C)C)NC(=O)[C@H](CC2CCCCC2)NC(=O)[C@H](CCN)NC(=O)[C@@H](CC(C)C)NC(=O)[C@H](C)N(C)C(=O)[C@H](C(C)C)NC(=O)[C@H](Cc2ccc(-c3ccccc3)cc2)NC1=O [Example 1211] ({CH2CO}-Y(Carboxymethyl)[4Pal]DWL[Bip]V[NMeA][dL][Dab][Cha]V[Dap]C[4Abz][Aun]-OH; thioether N-14) | 368 nM
3 | CC(=O)NCCCC[C@@H]1NC(=O)[C@H](C(C)C)NC(=O)[C@H](CC2CCCCC2)NC(=O)[C@H](CCN)NC(=O)[C@@H](CC(C)C)NC(=O)[C@H](C)N(C)C(=O)[C@H](CCC(N)=O)NC(=O)[C@H](Cc2ccc(-c3ccccc3)cc2)NC(=O)[C@H](CC(C)C)NC(=O)[C@H](Cc2cccc(C)c2)NC(=O)[C@H](CC(=O)O)NC(=O)[C@H](Cc2ccc(C(=O)O)cc2)NC(=O)[C@H](Cc2ccc(OCC(=O)O)cc2)NC(=O)CSC[C@@H](C(=O)NCCOCCOCC(=O)NCCCCCCCCCCC(=O)O)NC1=O [Example 2230] ({CH2CO}-Y(Carboxymethyl)[Phe(4-COOH)]D[Phe(3-Me)]L[Bip]Q[NMeA][dL][Dab][Cha]VK(Ac)C[AEEA][Aun]-OH; thioether N-14) | 13 nM
4 | CC(C)C[C@@H]1NC(=O)[C@H](Cc2c[nH]c3ccccc23)NC(=O)[C@H](CC(=O)O)NC(=O)[C@H](Cc2ccc(C(=O)O)cc2)NC(=O)[C@H](Cc2ccc(OCC(=O)O)cc2)NC(=O)CSC[C@@H](C(=O)N[C@@H](CCCCN)C(=O)NCc2ccc(CC(=O)NCCCCCCCCCCC(=O)O)cc2)NC(=O)[C@H](CO)NC(=O)[C@H](C(C)C)NC(=O)[C@H](CC2CCCCC2)NC(=O)[C@H](CCN)NC(=O)[C@@H](CC(C)C)NC(=O)[C@H](C)N(C)C(=O)[C@H](C(C)C)NC(=O)[C@H](Cc2ccc(-c3ccccc3)cc2)NC1=O [Example 1245] ({CH2CO}-Y(Carboxymethyl)[Phe(4-COOH)]DWL[Bip]V[NMeA][dL][Dab][Cha]VSCK[X6][Aun]-OH; thioether N-14) | 18.2 nM
5 | CC(C)C[C@@H]1NC(=O)[C@H](Cc2c[nH]c3ccccc23)NC(=O)[C@H](CC(=O)O)NC(=O)[C@H](Cc2ccc(C(=O)O)cc2)NC(=O)[C@H](Cc2ccc(OCC(=O)O)cc2)NC(=O)CSC[C@@H](C(=O)N[C@@H](CCN)C(=O)NCCCCCCCCCCC(=O)O)NC(=O)[C@H]([C@@H](C)O)NC(=O)[C@H](C(C)C)NC(=O)[C@H](CC2CCCCC2)NC(=O)[C@H](CCN)NC(=O)[C@@H](CC(C)C)NC(=O)[C@H](C)N(C)C(=O)[C@H](C(C)C)NC(=O)[C@H](Cc2ccc(-c3ccccc3)cc2)NC1=O [Example 1326] ({CH2CO}-Y(Carboxymethyl)[Phe(4-COOH)]DWL[Bip]V[NMeA][dL][Dab][Cha]VTC[Dab][Aun]-OH; thioether N-14) | 19.8 nM
6 | CC(=O)NCCCC[C@@H]1NC(=O)[C@H](Cc2ccc(-c3ccccc3)cc2)NC(=O)[C@H](C(C)C)NC(=O)[C@H](Cc2cccc(C)c2)NC(=O)[C@H](CC(=O)O)NC(=O)[C@H](Cc2ccc(OCC(=O)O)cc2)NC(=O)[C@H](Cc2ccc(OCC(=O)O)cc2)NC(=O)CSC[C@@H](C(=O)NCCOCCOCC(=O)NCCCCCCCCCCC(=O)O)NC(=O)[C@H](CCO)NC(=O)[C@H](C(C)C)NC(=O)[C@H](CC2CCCCC2)NC(=O)[C@H](CCN)NC(=O)[C@@H](CC(C)C)NC(=O)[C@H](C)N(C)C1=O [Example 2222] ({CH2CO}-Y(Carboxymethyl)Y(Carboxymethyl)D[Phe(3-Me)]V[Bip]K(Ac)[NMeA][dL][Dab][Cha]V[hSer]C[AEEA][Aun]-OH; thioether N-14) | 10.6 nM
7 | CC(C)C[C@@H]1NC(=O)[C@H](Cc2c[nH]c3ccccc23)NC(=O)[C@H](CC(=O)O)NC(=O)[C@H](Cc2ccncc2)NC(=O)[C@H](Cc2ccc(OCC(=O)O)cc2)NC(=O)CSC[C@@H](C(=O)NCCOCCOCC(=O)N[C@@H](CN)C(=O)NCCCCCCCCCCC(=O)O)NC(=O)[C@H](CCCNC(N)=O)NC(=O)[C@H](C(C)C)NC(=O)[C@H](CC2CCCCC2)NC(=O)[C@H](CCN)NC(=O)[C@@H](CC(C)C)NC(=O)[C@H](C)N(C)C(=O)[C@H](C(C)C)NC(=O)[C@H](Cc2ccc(-c3ccccc3)cc2)NC1=O [Example 2164] ({CH2CO}-Y(Carboxymethyl)[4Pal]DWL[Bip]V[NMeA][dL][Dab][Cha]V[Cit]C[AEEA][Dap][Aun]-OH; thioether N-14) | 11.9 nM

Next, values leading:

Row | IC50 | Compound
8 | 35.8 nM | Cc1cccc(C[C@@H]2NC(=O)[C@H](CC(=O)O)NC(=O)[C@H](Cc3ccc(OCC(=O)O)cc3)NC(=O)[C@H](CCCNC(=N)N)NC(=O)CSC[C@@H](C(=O)N[C@@H](CCN)C(=O)NCCCCCCCCCCC(=O)O)NC(=O)[C@H](C(C)O)NC(=O)[C@H](CO)NC(=O)[C@H](CC3CCCCC3)NC(=O)[C@H](CCN)NC(=O)[C@@H](CC(C)C)NC(=O)[C@H](C)N(C)C(=O)[C@H](Cc3ccc(OCC(=O)O)cc3)NC(=O)[C@H](Cc3ccc(-c4ccccc4)cc3)NC(=O)[C@H](Cc3ccc(OCC(=O)O)cc3)NC2=O)c1 (stereo partly drawn) [Example 2370] ({CH2CO}-RY(Carboxymethyl)D[Phe(3-Me)]Y(Carboxymethyl)[Bip]Y(Carboxymethyl)[NMeA][dL][Dab][Cha]S[Thr(3ξ)]C[Dab][Aun]-OH; thioether N-14)
9 | 9.7 nM | Cc1cccc(C[C@@H]2NC(=O)[C@H](CC(=O)O)NC(=O)[C@H](Cc3ccc(OCC(=O)O)cc3)NC(=O)[C@H](C(C)O)NC(=O)CSC[C@@H](C(=O)N[C@H](CC(N)=O)C(=O)NCCCCCCCCCCC(=O)O)NC(=O)[C@H](C(C)O)NC(=O)[C@H](C(C)C)NC(=O)[C@H](CC3CCCCC3)NC(=O)[C@H](CCN)NC(=O)[C@@H](CC(C)C)NC(=O)[C@H](C)N(C)C(=O)[C@H](CCCNC(N)=O)NC(=O)[C@H](Cc3ccc(-c4ccccc4)cc3)NC(=O)[C@H](Cc3ccccc3)NC2=O)c1 (stereo partly drawn) [Example 2315] ({CH2CO}-[Thr(3ξ)]Y(Carboxymethyl)D[Phe(3-Me)]F[Bip][Cit][NMeA][dL][Dab][Cha]V[Thr(3ξ)]C[dN][Aun]-OH; thioether N-14)
10 | 12.6 nM | Cc1cccc(C[C@@H]2NC(=O)[C@H](CC(=O)O)NC(=O)[C@H](Cc3ccc(OCC(=O)O)cc3)NC(=O)[C@H](CCN)NC(=O)CSC[C@@H](C(=O)N[C@@H](CCN)C(=O)NCCCCCCCCCCC(=O)O)NC(=O)[C@H](Cc3c[nH]cn3)NC(=O)[C@H](C(C)(C)O)NC(=O)[C@H](CC3CCCCC3)NC(=O)[C@H](CCN)NC(=O)[C@@H](CC(C)C)NC(=O)[C@H](C)N(C)C(=O)[C@H](Cc3ccc(OCC(=O)O)cc3)NC(=O)[C@H](Cc3ccc(-c4ccccc4)cc3)NC(=O)[C@H](Cc3ccc(OCC(=O)O)cc3)NC2=O)c1 [Example 2483] ({CH2CO}-[Dab]Y(Carboxymethyl)D[Phe(3-Me)]Y(Carboxymethyl)[Bip]Y(Carboxymethyl)[NMeA][dL][Dab][Cha][Val(3-OH)]HC[Dab][Aun]-OH; thioether N-14)

same assay, conditions: PE-labeled PD-L1-Ig 20 nM final, Jurkat-hPD-1 cells; read-out: Jurkat HPD1 PDL1 IC50

Row | Compound | IC50
11 | CC(C)C[C@H]1NC(=O)[C@H](C)N(C)C(=O)[C@H](CCC(N)=O)NC(=O)[C@H](Cc2ccc(-c3ccccc3)cc2)NC(=O)[C@H](C(C)C)NC(=O)[C@H](Cc2c[nH]c3ccccc23)NC(=O)[C@H](CC(=O)O)NC(=O)[C@H](Cc2ccc(OCC(=O)O)cc2)NC(=O)[C@H](Cc2ccncc2)NC(=O)CSC[C@@H](C(=O)N[C@@H](CCN)C(=O)NCCOCCOCC(=O)NCCCCCCCCCCC(=O)O)NC(=O)[C@H](CCC(=O)O)NC(=O)[C@H](C(C)C)NC(=O)[C@H](CC2CCCCC2)NC(=O)[C@H](CCN)NC1=O [Example 2492] ({CH2CO}-[4Pal]Y(Carboxymethyl)DWV[Bip]Q[NMeA][dL][Dab][Cha]VEC[Dab][AEEA][Aun]-OH; thioether N-14) | 31.1 nM
12 | Cc1cccc(C[C@@H]2NC(=O)[C@H](CC(=O)O)NC(=O)[C@H](Cc3ccc(OCC(=O)O)cc3)NC(=O)[C@H](CCN)NC(=O)CSC[C@@H](C(=O)N[C@@H](CCN)C(=O)NCCCCCCCCCCC(=O)O)NC(=O)[C@H](CO)NC(=O)[C@H](C(C)(C)O)NC(=O)[C@H](CC3CCCCC3)NC(=O)[C@H](Cc3c[nH]cn3)NC(=O)[C@@H](CC(C)C)NC(=O)[C@H](C)N(C)C(=O)[C@H](Cc3ccc(OCC(=O)O)cc3)NC(=O)[C@H](Cc3ccc(-c4ccccc4)cc3)NC(=O)[C@H](Cc3ccc(OCC(=O)O)cc3)NC2=O)c1 [Example 2465] ({CH2CO}-[Dab]Y(Carboxymethyl)D[Phe(3-Me)]Y(Carboxymethyl)[Bip]Y(Carboxymethyl)[NMeA][dL]H[Cha][Val(3-OH)]SC[Dab][Aun]-OH; thioether N-14) | 70.2 nM
